Laboratory results reported in patent US20120184548A1, “CARBOXYLIC ACID ARYL AMIDES” (priority 2011, published 2012).

Legend:
Human DYRK1A = target: T1, Human DYRK1A (Homo sapiens, UniProt Q13627); assay: DYRK1A Kinase TR-FRET (IMAP-Tb) Assay; type: biochemical; settings: for IC50: TR-FRET, ATP 70 μM, 37° C. for 60 minutes, averages of multiple runs, read-out: Enzyme IC50 DYRK1A; for inhibition at 10 µM: 10 μM test compound, reported where IC50 was not determined, read-out: Enzyme DYRK1A % inhibition at 10 μM test compound concentration
T1 construct: purchased Invitrogen PV3997
Source text: The kinase TR-FRET (IMAP-Tb) assay uses a fluorescence labeled substrate peptide in the kinase reaction. Upon phosphorylation by the kinase, phosphopeptide is produced, which will be detected by the binding solution provided in IMAP TR-FRET binding kit. After the completion of the kinase reaction, the reaction will be stopped by adding the binding solution containing terbium tracer. This tracer is immobilized on the surface of the IMAP beads, which also contain metal ions on the beads that bind to the phospho-groups of the products. Thus the phosphorylated product of the reaction can enter into close proximity to the tracer, producing resonance energy transfer. Due to the long lifetime of terbium (Tb) fluorescence the detection can be run in time resolved mode, which virtually eliminates fluorescence interference from assay components or compounds.
The TR-FRET signal measurement from this assay, given as an IC50 measurement, is a measure of a test compound's ability to interfere with the phosphorylation of the peptide substrate, that is it inhibits the phosphorylation of the substrate peptide by DYRK1A, and is thus a measure of the test compound's ability to inhibit the activity of DYRK1A.
1. Human DYRK1A: from Invitrogen. Part # PV3997
2. Substrate Peptide: […]
3. IMAP TR-FRET IPP Explorer Kit: from Molecular Devices. Part # R8157 4. Kinase Assay Buffer (KAB): 10 mM HEPES pH 7.0, 50 mM NaCl, 5 mM MgCl2, 1 mM DTT, 1 mM NaVO4, 200 μg/mL BSA (0.02%) 5. Assay Plate: Remp polypropylene clear 384-well microplate. […] Detection Plate: Costa black 384-well microplate. […] Transfer 1.5 μL of 20× compound solution to each well of an assay plate. 2. Add to each well 22.5 μL of KAB Buffer. 3. Add to each well 3 μL of the solution of DYRK1A and ATP. […] Add to each well 3 μL of the substrate peptide. The assay concentration is 1.0 μM 5. Incubate the assay plates at 37° C. for 60 minutes. 6. Add 18 μL of Detection Solution (1:800 diluted Progress bead stock, 1:400 diluted Tb stock, 80% Buffer A, and 20% Buffer B) into each well of detection plates. 7. Transfer 6 μL of assay solution from the assay plate to the detection plate. 8. Shake detection plates for 30 minutes. 9. Read plates in Envision with wavelength set at excitation 340 nm for Tb, emission 490 nm, and […].

[1] = system: SW620 human colon cancer cells; assay: SW620 Cell Viability Assay (CellTiter-Glo); type: cell-based; settings: SW-620, 96 h, 4 days incubation, read-out: Cellular EC50 SW620
Description: 1. Cell Plate Preparation: SW620 human colon cancer cells (known to express DYRK1B), obtained from ATCC, were seeded into 96-well plates at […] in 50 μL of media. • Harvested the required number of cells (counts & viability determined by Guava Viacount). • Centrifuge cells to pellet and removed supernant. • Resuspended in growth media (50 μL/well) & pipetted thoroughly to break up clumps. • Setup for ˜100 wells/plate, therefore, VT=5 mL/plate @ 1.2×10^5 cells/mL. 1A. Some cells (S-) were allowed to attach for 24 hrs, serum starved for 48 hrs, and then followed with treatments of test compound.
Test Compound solution was prepared in regular corresponding media supplemented with serum
2. Test Compound Preparation: Test compounds were solubilized in either DMSO or media and prepared at various stock concentrations. • All compounds were incubated at 37° C. for 30 minutes and vortexed. • (5 mM stocks of test compound were prepared for non-soluble drugs)
3. Test Compound Plate Preparation:
• The 10 mM test compound stock was diluted to a concentration of 100× the final Cmax concentration. • Then the test compound stock is diluted 50-fold in media and/or second test compound for a final Cmax concentration in the test compound plate. • The Cmax in the test compound plate (2% DMSO) is 2-fold higher than the final Cmax in the cell plate (60 uL titrations were 1:3). 4. Viability Assay: This assay was performed as follows: • Transfer 50 μL of test compound solution per well from the test compound plate onto the cell plate prepared in Step #1. • Mix the plate with treated cells by pipetting up and down three times with 200 μL multi-channel pipet. • Incubate the cells in 5% CO2 incubator @ 37° C. for 4 days. • Run the CellTiter-Glo™ Luminescent Cell Viability Assay. The results of this assay, given as EC50 values, indicate the concentration of test compound that inhibits tumor cell proliferation by 50%.

Human DYRK1B = target: T2, Human DYRK1B (Homo sapiens, UniProt Q9Y463); assay: DYRK1B Kinase TR-FRET (IMAP-Tb) Assay; type: biochemical; settings: for IC50: TR-FRET, ATP 70 μM, 37° C. for 60 minutes, averages of multiple runs, read-out: Enzyme IC50 DYRK1B
T2 construct: purchased Invitrogen PR8350B (former PV4649)
Source text: The kinase TR-FRET (IMAP-Tb) assay uses a fluorescence labeled substrate peptide in the kinase reaction. Upon phosphorylation by the kinase, phosphopeptide is produced, which will be detected by the binding solution provided in IMAP TR-FRET binding kit. After the completion of the kinase reaction, the reaction will be stopped by adding the binding solution containing terbium tracer. This tracer is immobilized on the surface of the IMAP beads, which also contain metal ions on the beads that bind to the phospho-groups of the products. Thus the phosphorylated product of the reaction can enter into close proximity to the tracer, producing resonance energy transfer. Due to the long lifetime of terbium (Tb) fluorescence the detection can be run in time resolved mode, which virtually eliminates fluorescence interference from assay components or compounds. […] IC50 is the amount of test compound that inhibits 50% of the activity of DYRK1B in this assay. […] 1. Human DYRK1B: from Invitrogen. Part # PR8350B (former PV4649) 2. Substrate Peptide: RRRFRPASPLRGPPK 3. IMAP TR-FRET IPP Explorer Kit: from Molecular Devices. Part # R8157 4. Kinase Assay Buffer (KAB): 10 mM HEPES pH 7.0, 50 mM NaCl, 5 mM MgCl2, 1 mM DTT, 1 mM NaVO4, 200 μg/mL BSA (0.02%) 5. Assay Plate: Remp polypropylene clear 384-well microplate. Cat#23490-102 6. Detection Plate: Costa black 384-well microplate. Cat #3710 Assay Procedure: This assay was performed as follows: 1. Transfer 1.5 μL of 20× compound solution to each well of an assay plate. 2. Add to each well 22.5 μL of KAB Buffer. 3. Add to each well 3 μL of the solution of DYRK1B and ATP. […] Add to each well 3 μL of the substrate peptide. […] Incubate the assay plates at 37° C. for 60 minutes. 6. Add 18 μL of Detection Solution (1:800 diluted Progress bead stock, 1:400 diluted Tb stock, 80% Buffer A, and 20% Buffer B) into each well of detection plates. 7. Transfer 6 μL of assay solution from the assay plate to the detection plate. 8. Shake detection plates for 30 minutes. 9. Read plates in Envision with wavelength set at excitation 340 nm for Tb, emission 490 nm, and […]. 10. Calculation: TR-FRET Signal=(Reading at […])×2000000

T2 sequence (Q9Y463 whole entry): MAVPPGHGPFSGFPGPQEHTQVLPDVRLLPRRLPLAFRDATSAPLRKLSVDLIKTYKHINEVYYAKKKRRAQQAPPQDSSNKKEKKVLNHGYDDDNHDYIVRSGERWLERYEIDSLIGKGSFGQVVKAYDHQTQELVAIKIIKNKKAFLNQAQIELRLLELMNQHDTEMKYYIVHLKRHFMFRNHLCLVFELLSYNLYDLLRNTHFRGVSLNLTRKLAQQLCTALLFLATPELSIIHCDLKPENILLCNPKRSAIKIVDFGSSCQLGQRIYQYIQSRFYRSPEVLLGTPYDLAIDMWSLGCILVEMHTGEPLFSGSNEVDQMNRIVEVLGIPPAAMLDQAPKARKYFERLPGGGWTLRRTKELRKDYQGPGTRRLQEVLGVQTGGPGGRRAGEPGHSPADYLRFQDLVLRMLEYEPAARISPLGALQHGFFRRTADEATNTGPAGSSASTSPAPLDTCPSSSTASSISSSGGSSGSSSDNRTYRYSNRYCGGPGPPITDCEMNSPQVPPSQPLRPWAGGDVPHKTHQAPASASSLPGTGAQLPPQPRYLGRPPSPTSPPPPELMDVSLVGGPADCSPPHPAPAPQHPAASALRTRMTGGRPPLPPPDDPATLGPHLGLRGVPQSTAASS

Row | Compound | IC50 (Human DYRK1A) [nM] | EC50 [1] [nM] | IC50 (Human DYRK1B) [nM] | inhibition at 10 µM (Human DYRK1A) [%] | inhibition at 10 µM (Human DYRK1B; 10 μM test compound, reported where IC50 was not determined, read-out: Enzyme DYRK1B % inhibition at 10 μM test compound concentration) [%]
1 | COCCOc1cc2cc(C(=O)Nc3cc(C(=O)N[C@H](CCN)c4ccccc4)ccc3C)c(=O)[nH]c2cc1OC (single isomer, unassigned) [Example 58] | 9 | 4040 | 29 | – | –
2 | COc1cc2cc(C(=O)Nc3cc(C(=O)NC(CCN)c4ccccc4)ccc3C)c(=O)[nH]c2cc1OC (stereo in doubt) [Example 47, 6,7-Dimethoxy-2-oxo-1,2-dihydro-quinoline-3-carboxylic acid [5-((R)-3-amino-1-phenyl-propylcarbamoyl)-2-methyl-phenyl]-amide] | 85.5 | > 3000 | 14 | – | –
3 | COC(=O)c1ccc(C)c(NC(=O)c2cc3cc(OC)c(OC)cc3[nH]c2=O)c1 [Example 17, 3-[(6,7-Dimethoxy-2-oxo-1,2-dihydro-quinoline-3-carbonyl)-amino]-4-methyl-benzoic acid methyl ester] | – | > 10000 | 560 | – | –
4 | COC(=O)c1ccc(Cl)c(NC(=O)c2cc3cc(OC)c(OC)cc3[nH]c2=O)c1 [Example 19, 4-Chloro-3-[(6,7-dimethoxy-2-oxo-1,2-dihydro-quinoline-3-carbonyl)-amino]-benzoic acid methyl ester] | – | > 10000 | – | 44 | 47
5 | COCCOc1cc2cc(C(=O)Nc3cc(C(=O)OC)ccc3C)c(=O)[nH]c2cc1OC [Example 23, 3-{[7-Methoxy-6-(2-methoxy-ethoxy)-2-oxo-1,2-dihydro-quinoline-3-carbonyl]-amino}-4-methyl-benzoic acid methyl ester] | 262 | > 10000 | 440 | – | –
6 | COc1cc2cc(C(=O)Nc3cc(C(=O)NC(CN)c4ccccc4)ccc3C)c(=O)[nH]c2cc1OC (stereo not drawn) [Example 31, 6,7-Dimethoxy-2-oxo-1,2-dihydro-quinoline-3-carboxylic acid [5-(2-amino-1-phenyl-ethylcarbamoyl)-2-methyl-phenyl]-amide] | – | 1920 | 141 | – | –
7 | COc1cc2cc(C(=O)Nc3cc(C(=O)NC(CCN)c4ccccc4)ccc3C)c(=O)[nH]c2cc1OC (stereo not drawn) [Example 35, 6,7-Dimethoxy-2-oxo-1,2-dihydro-quinoline-3-carboxylic acid [5-(3-amino-1-phenyl-propylcarbamoyl)-2-methyl-phenyl]-amide] | 154 | 2050 | 59.5 | – | –
8 | COCCOc1cc2cc(C(=O)Nc3cc(C(=O)NC(CN)c4ccccc4)ccc3C)c(=O)[nH]c2cc1OC (stereo not drawn) [Example 37, 7-Methoxy-6-(2-methoxy-ethoxy)-2-oxo-1,2-dihydro-quinoline-3-carboxylic acid [5-(2-amino-1-phenyl-ethylcarbamoyl)-2-methyl-phenyl]-amide] | 19.1 | 1820 | 32.5 | – | –
9 | COc1cc2cc(C(=O)Nc3cc(C(=O)NC(CN)c4cccc(Cl)c4)ccc3C)c(=O)[nH]c2cc1OC (stereo not drawn) [Example 50, 6,7-Dimethoxy-2-oxo-1,2-dihydro-quinoline-3-carboxylic acid {5-[2-amino-1-(3-chloro-phenyl)-ethylcarbamoyl]-2-methyl-phenyl}-amide] | – | 1130 | 73.2 | – | –
10 | COc1cc2[nH]c(=O)c(C(=O)Nc3cc(C(=O)NCc4cccc(Cl)c4)ccc3C)cc2cc1O [Example 68, 6-Hydroxy-7-methoxy-2-oxo-1,2-dihydro-quinoline-3-carboxylic acid [5-(3-chloro-benzylcarbamoyl)-2-methyl-phenyl]-amide] | 58 | – | 189 | – | –
11 | COCCOCCOc1cc2cc(C(=O)Nc3cc(C(=O)NCc4cccc(Cl)c4)ccc3C)c(=O)[nH]c2cc1OC [Example 70, 7-Methoxy-6-[2-(2-methoxy-ethoxy)-ethoxy]-2-oxo-1,2-dihydro-quinoline-3-carboxylic acid [5-(3-chloro-benzylcarbamoyl)-2-methyl-phenyl]-amide] | 67 | – | 1690 | – | –
12 | COC(=O)c1ccc(Cl)c(NC(=O)C2Cc3cc(OC)c(OC)cc3NC2=O)c1 (stereo not drawn) [Example 71, 4-Chloro-3-[(6,7-dimethoxy-2-oxo-1,2,3,4-tetrahydro-quinoline-3-carbonyl)-amino]-benzoic acid methyl ester] | 690 | – | 860 | – | –
13 | COC(=O)c1ccc(C)c(NC(=O)C2Cc3cc(OC)c(OC)cc3NC2=O)c1 (stereo not drawn) [Example 72, 3-[(6,7-Dimethoxy-2-oxo-1,2,3,4-tetrahydro-quinoline-3-carbonyl)-amino]-4-methyl-benzoic acid methyl ester] | 5590 | – | 1800 | – | –
14 | COc1cc2c(cc1OC)NC(=O)C(C(=O)Nc1cc(C(=O)NCc3ccccc3)ccc1Cl)C2 (stereo not drawn) [Example 73, 6,7-Dimethoxy-2-oxo-1,2,3,4-tetrahydro-quinoline-3-carboxylic acid (5-benzylcarbamoyl-2-chloro-phenyl)-amide] | 880 | – | 2340 | – | –
15 | COc1cc2c(cc1OC)NC(=O)C(C(=O)Nc1cc(C(=O)NCc3ccccc3)ccc1C)C2 (stereo not drawn) [Example 74, 6,7-Dimethoxy-2-oxo-1,2,3,4-tetrahydro-quinoline-3-carboxylic acid (5-benzylcarbamoyl-2-methyl-phenyl)-amide] | – | – | > 10000 | 30 | –
